# According to US11331370B2, “Combination product for the prevention of sexually transmitted infections” (priority 2014, dated 2022):
# Legend:
# HIV-1 = settings: p24 ELISA and RT; cited from earlier work
# HSV-2 G strain [1] = assay: Dye-uptake PrestoBlue antiviral assay in Vero cells; format: cell-based; settings: 6 day incubation, combination value based on API with bold font
# Description: We previously reported that the combination of ZA and CG results in a potent antiviral synergy against HSV-2. Fernandez-Romero, J. A., et al., Antimicrobial agents and chemotherapy, 2012. 56(1): p. 358-68. […] Briefly, HSV-2 G strain and different concentrations of each compound or their combinations (based on equipotency IC50 ratios) were pre-incubated at 37° C. and added to Vero cells followed by a 6 day incubation at 37° C., 5% CO2 and 98% humidity. A dye-uptake PrestoBlue assay was performed to test antiviral activity. Relative fluorescent units (RFU) were measured at 570 nm for excitation and 600 nm for emission. The % of virus replication was calculated using the following formula: % Virus replication=[(O.Dcell control−O.Dcompound)/(O.Dcell control−O.Dvirus control)]*100. IC50 values were calculated using a dose-response-inhibition analysis on GraphPad Prism v 5.0 software. As provided therein, ¶ IC50 or % IC50 reduction values are based on API with bold font; NA=Not applicable.
# HIV-192BR014 = assay: Anti-HIV combination activity in activated PBMCs, p24 ELISA, Chou-Talalay; format: cell-based; settings: PBMC, HIV-1 92BR014, p24 day 7; combination value refers to the API in bold font (GRFT); read-out: Dm, median-effect dose (IC50)
# Description: Briefly, in order to test anti-HIV activity, activated PBMCs were treated with varying equipotent doses (based on IC50 of each API) of GRFT, ZA or GRFT+ZA at 37° C. 1 h prior to exposure to 100 TCID50 of HIV-192BR014 in the presence of the same doses of each compound or combination (triplicates). Medium-treated (virus only) cells were included as a control. Eighteen hours later the cells were washed and plated in the presence of medium with IL-2 (with the only exception of those samples treated with ZA, where ZA was replaced). This step was repeated on day 4 and the supernatants collected on day 7 to measured HIV-1 p24 levels by ELISA. […] Combination indexes (CI) were estimated using the Chou-Talalay method (Chou, T. C. Pharmacological Reviews, 2006, 58(3): p. 621-81) with the Cacusyn for Windows software (Biosoft, Cambridge, United Kingdom). As provided therein, “CI” refers to a quantitative measure of the degree of drug interaction as follows: additive effect (CI=1); synergism (CI <1), or antagonism (CI >1). “Dm” refers to the median-effect dose (IC50); “m” refers to a measurement of the sigmoidicity of the dose-effect curve, and also represents the slope of the median-effect plot; and “r” refers to the linear correlation coefficient of the median-effect plot. […]
# HIV-1NL4-3 = assay: Anti-HIV activity in PBMC, p24 ELISA; format: cell-based; settings: activated PBMC, p24 ELISA day 7, FIG. 1B
# Description: (§1) FIG. 1 includes logarithmic plots which show the percentage of virus replication in the presence of GRFT (nM). Data in FIG. 1 A and FIG. 1 B confirm that GRFT has potent activity against HIV. […] In FIG. 1A, anti-HIV activity was tested in TZM-bl cells using the MAGI assay (R Begay O, et al. AIDS Research and Human Retroviruses, 2011 Sep. 1; 27(9):1019-24) and the laboratory strains HIV-1MN (X4 virus) and HIV-1ADA-M ([…]). In FIG. 1B, anti-HIV activity was tested in PBMC (Trkola A, et al., J Virol. 1999 November; 73(11):8966-74) using the laboratory strains HIV-1NL4-3. In FIG. 1C, anti-HPV activity was evaluated in HeLa cells using a luciferase reporter gene assay (Buck C B, et al. PLoS Pathog. 2006 Jul. 1; 2(7):e69) and testing the antiviral activity against three different HPV PsV types (16, 18 and 45). In FIGS. 1A, 1B, 1C, IC50 values are depicted as a vertical dotted line with the 95% confidence interval and were calculated using a dose-response-inhibition analysis on GraphPad Prism v 5.0 software. All the non-toxic GRFT concentrations were tested in triplicates and are shown with the mean±SD.
# Anti-HIV activity was also tested in peripheral blood mononucleated cells (PBMC) using the laboratory strains HIV-1NL4-3 according to conventional methods. See Trkola A, et al., J Virol. 1999 November; 73(11):8966-74. […]
# HPV45 PsV = assay: HPV pseudovirus luciferase assay in HeLa cells; format: cell-based; settings: 72 h, FIG. 1C
# Description: as §1
# (§2) The activity of GRFT against HPV pseudoviruses was also investigated. […]
# HPV18 PsV = assay: HPV pseudovirus luciferase assay in HeLa cells; format: cell-based; settings: 72 h, FIG. 1C
# Description: as §1, §2
# HSV-2 G strain [2] = assay: Plaque inhibition assay in Vero cells, inhibition of virus entry; format: cell-based; settings: 4° C. then 37° C. 2 h, citric acid buffer, FIG. 2B
# HPV16 PsV = assay: HPV pseudovirus luciferase assay in HeLa cells; format: cell-based
# Description: The activity of GRFT against HPV pseudoviruses was also investigated. […] All the non-toxic GRFT concentrations were tested in triplicates. The graphics show the mean±SD.
# Medium-treated (virus only) cells were included as a control. […] In order to assay for anti-HPV activity, HeLa cells were treated with varying equipotent doses of GRFT, C or GRFT+C (based on IC50 of each API) at 37° C. and immediately exposed to HPV16 PsV (triplicates). Medium-treated (virus only) cells were included as a control. The luciferase assay was performed 72 h after infection. […] As provided therein, “CI” refers to a quantitative measure of the degree of drug interaction as follows: additive effect (CI=1); synergism (CI <1), or antagonism (CI >1). […]
# HSV-2 G strain [3] = assay: Plaque inhibition assay in Vero cells, inhibition of virus adsorption; format: cell-based; settings: 4° C., plaque forming units, FIG. 2A
# HIV-1MN (X4 virus) = assay: MAGI assay in TZM-bl cells, anti-HIV activity; format: cell-based; settings: 72 h, FIG. 1A
# Description: as §1
# (§3) The activity of GRFT against HIV was verified in standard in vitro assays. […]
# HIV-1ADA-M (R5 virus) = assay: MAGI assay in TZM-bl cells, anti-HIV activity; format: cell-based; settings: 72 h, FIG. 1A
# Description: as §1, §3
compound,measurement,setting,value
[Cl-].[Cl-].[Zn+2] [zinc chloride],HIV-1 production,HIV-1,inhibited HIV-1 production
"CC(=O)[O-].CC(=O)[O-].[Zn+2] [ZA, zinc acetate]",IC50 (95% confidence interval),HSV-2 G strain [1],58.2 µg/mL
same,IC50,HIV-192BR014,48.3 µM
CC(=O)[O-].CC(=O)[O-].[Cd+2] [cadmium acetate],HIV-1 production,HIV-1,inhibited HIV-1 production
[Cl][Hg][Cl] [mercury chloride],HIV-1 production,HIV-1,inhibited HIV-1 production
Griffithsin [GRFT],anti-HIV activity in vitro,HIV-1NL4-3,potent anti-HIV activity
same,in vitro activity against HPV45 PsV,HPV45 PsV,moderate in vitro activity
same,in vitro activity against HPV18 PsV,HPV18 PsV,moderate in vitro activity
same,IC50 (95% confidence interval),HSV-2 G strain [1],19 µg/mL
same,inhibition of virus entry,HSV-2 G strain [2],prevents HSV-2 entry
same,IC50,HIV-192BR014,0.0004 µM
same,in vitro activity against HPV16 PsV,"HPV16 PsV; HeLa cells, luciferase assay, 72 h, FIG. 1C",moderate in vitro activity
same,IC50,"HPV16 PsV; HeLa, HPV16 PsV, luciferase 72 h, combination value refers to the API in bold font, read-out: Dm, median-effect dose (IC50)",32.7 µM
same,inhibition of virus adsorption,HSV-2 G strain [3],does not prevent viral adsorption
same,anti-HIV activity in vitro,HIV-1MN (X4 virus),potent anti-HIV activity
same,anti-HIV activity in vitro,HIV-1ADA-M (R5 virus),potent anti-HIV activity
